The conditions of data set [1]: healthy volunteers, via os, cited from earlier work.
The conditions of data set [2]: Weber C C et al. 2006; cited from earlier work.
Data set [3] is described as follows: Plasma and brain levels of βBA and AKBA via os in mice (Gerbeth K et al. 2013). The data set is classed as in vivo. The text has this:
βBA appears not to undergo blood-brain barrier. According to the data of Gerbeth K et al. 2013, brain levels of AKBA were very low, resulting 0.4 per AKBA in the brain/plasma ratio (but 0.81 according to Weber C C et al. 2006). In contrast, the § BA concentration in the brain was even higher than that found in the blood with 32% increase (See Table 1).

The conditions of data set [4]: cited from earlier work.
For data set [5] the following is noted: cited from earlier work. This is another data set of the same source.
Data set [6] in a line: Pharmacokinetics of βBA and AKBA via os in healthy volunteers, fasted and hyperlipidic meal (Sterk V et al. 2004). The data set is classed as in vivo, humans. The following applies: healthy volunteers. The text has this: Indeed, βBA has a concentration in the blood: • at least 6 times higher than AKBA both in the fasting condition and with a hyperlipidic meal; • increased by 6 times after hyperlipidic meal so that the plasma/os ratio passes from 0.09 to 0.55.

For data set [7] the following is noted: mice; cited from earlier work.
The conditions of data set [8]: cited from earlier work. This is another data set of the same source.
The next data set concerns intact mice. The experiment in a line: Behavioral tests on intact animals (open field, freezing). The format is in vivo. Conditions: for lowest dose showing antidepressant effects: intact mice, preliminary experiments (unpublished observations); for effect in behavioral tests, individually: mouse, in vivo. How it is done: The trials were performed at the Department of Clinical and Experimental Medicine of the University of Foggia according to the following rationale. • 1. In the present mouse model of beta-amyloid toxicity, using validated tests in mice, we evaluated the behaviors: • a. antidepressant: Tail Suspension Test (TST); Forced Swimming Test (FST); Splash Test (ST) with latency time (sec) and self-care (sec) measurement. • b. antianxiety: Open Field Test with measurement of distance traveled (m), time spent in the wall (sec), time spent in the center (sec), center entries (n); Freezing Test (sec). • c. on memory, learning, coordination of motor skills, fear conditioning: Rotarod Test with measure of Latency to Fall, repeated after training to evaluate motor learning. • 2. We tested the protective effects with the following procedure: • a. individually: βCP, FE, βBA, DHA and HA4; • b. in association with pairs: βCP+HA4, FE+HA4, βBA+HA4, FE+βCP, βBA+FE, βBA+βCP. • c. in association, all four together: βCP+FE+βBA+HA4 • d. versus control (SHAM), • e. using the mouse model of an Aβ-induced depressive phenotype. • 3. These behavioral tests were integrated with serotonin, dopamine, noradrenaline and their metabolites prefrontal cortex and hippocampus measurement. • 4. Furthermore, we evaluated the cortical and hippocampal glutamate (GLU) levels in mice treated with AP and subsequently we tested the ability of βCP, FE, βBA and HA4, to modulate this neurochemical parameter.
βCP, FE e βBA (Merck, Cayman Chemical Company) was dissolved in sunflower oil, this vehicle was chosen in order to maintain a better tasting and higher density of the final solution thus reducing reflux through the digestive tract.
(§1) Ten μl of the solution (or vehicle alone) were administered sublingually to mice. Brain βCP, FE e βBA were quantified in a separate subset of mice at 5, 15 and 30 min after their administration.
Open Field Test. Mice were placed in an open field arena and allowed to explore for 30 min [Lama A et al. 2021]. After each trial, the arena floor was cleaned with 70% ethanol to avoid inter-assay bias. The movements of mice were video recorded and analyzed by ANY-maze tracking software (Ugo Basile-Varese, Gemonio, Italy). Locomotion was evaluated through total crossing measurements.

The test system of another data set is CD11b. The data set is described as follows: CD11b protein levels in mice treated with Aβ icv, Western blotting (FIG. 8). The data set is classed as in vivo. The following applies: PFC and HIPP, HA4 0.2 mg/mouse.
For another data set, the system named is GFAP. The data set is described as follows: GFAP protein levels in mice treated with Aβ icv, Western blotting (FIG. 9). The following applies: PFC and HIPP, HA4 0.2 mg/mouse. The format is in vivo. For orientation: Immunoblotting shows a protein as a band on a membrane.
For a further data set, the system named is kynurenine (KYN). The data set is described as follows: Kynurenine levels in mice treated with Aβ icv (FIG. 6). The format is in vivo. Conditions: prefrontal cortex and hippocampus, HA4 0.2 mg/mouse. How it is done: (§2) The Aβ1-42, obtained from Tocris (Bristol, UK), was dissolved in sterile double-distilled pyrogenic-free water, as vehicle, to obtain a final concentration 4 μM [Colaianna M et al. 2010]. Mice were anesthetized with a solution (0.85 in ml/kg, i.p.), containing ketamine (Sigma Aldrich, Milan, Italy, 100 mg/10 ml), xylazine (Sigma Aldrich, Milan, Italy, 100 mg/10 ml) and acepromazine (prequillant, ATI Azienda Terapeutica Veterinaria Srl, 10 mg/10 ml) dissolved in saline solution. Animals were secured in a stereotaxic frame (David Kopf Instruments, Tujunga, CA, USA) and the peptide injection was accomplished in the lateral ventricle of mice at the following coordinates: AP=−0.2, ML=+1 e DV=2 relative to bregma, according to the atlas of Paxinos and Franklin [Paxinos G and Franklin K B J 2019]. […] At the time of dissection, the correct needle track was assessed. […]
(§3) 5-HT, noradrenaline (NA), and KYN levels were measured in the PFC and HIPP of mice by HPLC coupled with an electrochemical detector (Ultimate ECD, Thermo Scientific Dionex, Milan, Italy) as already reported [Francavilla M et al. 2012, Morgese M G et al. 2016]. […] GLU concentrations were determined by HPLC coupled with fluorescence detection (emission length 460 nm; excitation length 340 nm), as previously published [Francavilla M et al. 2012]. […]

A further data set concerns glutamate (GLU). The data set is described as follows: Glutamate levels in mice treated with Aβ icv (FIG. 7). The data set is classed as in vivo. Conditions: after 7 days. The procedure:
as §2, §3

For data set [9] the following is noted: in vivo; cited from earlier work.
In the next data set the test system is mice treated with Aβ icv. The experiment in a line: Splash test in SHAM mice and mice treated with Aβ icv (FIG. 4). The data set is classed as in vivo. Conditions: after 7 days, HA4 200 μg, βCP 50 μg, βBA 100 μg, FE 50 μg sublingually. The procedure: The Aβ1-42, obtained from Tocris (Bristol, UK), was dissolved in sterile double-distilled pyrogenic-free water, as vehicle, to obtain a final concentration 4 μM [Colaianna M et al. 2010]. Mice were anesthetized with a solution (0.85 in ml/kg, i.p.), containing ketamine (Sigma Aldrich, Milan, Italy, 100 mg/10 ml), xylazine (Sigma Aldrich, Milan, Italy, 100 mg/10 ml) and acepromazine (prequillant, ATI Azienda Terapeutica Veterinaria Srl, 10 mg/10 ml) dissolved in saline solution. […] At the time of dissection, the correct needle track was assessed. […]
as §1
All behavioral experiments were conducted at 5 or 30 min after sublingual administrations of βBA or vehicle in mice treated with SHAM or AP. Based on the observed behavioral results, neurochemical and biochemical quantifications were performed 30 min after administration of βCP, FE, and βBA or vehicle in SHAM- or Aβ-treated mice.
Splash test. […] The test was videotaped and later an observer, blind to the trial, scored for latency to the first grooming event and duration of self-care behavior during the period of the test (5 min).

The next data set has as its system dopamine (DA). The data set is described as follows: Dopamine (DA) levels in Aβ icv-treated mice (FIG. 5c). The format is in vivo. Conditions: HIPP.
The conditions of data set [10]: cited from earlier work. This is another data set of the same source.
For data set [11] the following is noted: mice, cited from earlier work.
[12] abbreviates: intact animals, hyaluronic acid only (FIG. 3).

Entries after “also recorded” stand apart in the source; their conditions may differ. Read-outs that look alike come from different tables or passages of the source.

One may read the LD50 as the dose expected to kill half of the subjects tested.

Procedure for CD11b: (§4) The total amount of proteins was measured in homogenates by using Pierce BCA Assay (Thermo Fisher Scientific, Cleveland, OH, USA). […] After HRP-conjugated specific antibody incubation, ECL reagent (Bio-Rad Laboratories Inc., Segrate (MI), Italy) was added to the immune complex and chemiluminescence was detected by ChemiDoc MP system (Bio-Rad Laboratories Inc., Segrate (MI), Italy). Optical densities of the bands were measured using Image J software (http://rsb.info.nih.gov/ij/ accessed on 15 Mar. 2021) and normalized against bands relative to -actin (1:5,000, Abcam, Cambridge, UK).
Procedure for GFAP: as §4

Consider `CC(=O)O[C@@H]1CC[C@@]2(C)[C@@H](CC[C@]3(C)[C@@H]2C(=O)C=C2[C@@H]4[C@@H](C)[C@H](C)CC[C@]4(C)CC[C@]23C)[C@@]1(C)C(=O)O` [AKBA, acetyl-11-keto-beta-boswellic acid], for which the “concentration in the plasma” value in data set [1] (fasted conditions) is given as 6 fasted ng/g o ng/ml; in data set [1] (hyperlipidic fed conditions), 28 hyperlipidic ng/g o ng/ml; in [4] (mice, via os), 93 ng/g o ng/ml; in data set [5] (patients, via os), 0-15 ng/g o ng/ml. Besides, the brain/plasma ratio was 0.81 in [2] and 0.4 in data set [4] (Gerbeth K et al. 2013). Moreover, in [3], the Δos/brain is on record as 204. For the same molecule, the Δos/plasma is 82 in [3], 68 fasted in data set [6] (fasted conditions) and 15 hyperlipidic in [6] (hyperlipidic fed conditions). In data set [3], this molecule came in with a Δplasma/brain of 2.5. In addition, the “reduction of blood concentration compared to the dose introduced orally” value in [4] (mice, via os, intestinal mucosa to blood) was 80 times. Moreover, the “concentration in the brain” value in data set [4] (mice, via os) is listed as 37.5 ng/g o ng/ml. Moreover, the “reduction of concentration when crossing the blood-brain barrier” value in data set [4] (mice) is “more than twice”. The blood concentration in data set [5] (80 mg AKBA to 13 patients, found in only one of them) is 15.5 ng/mL.

Regarding `CC/C=C\C/C=C\C/C=C\C/C=C\C/C=C\C/C=C\CCC(=O)O` [DHA, docosahexaenoic acid], the safe dose in [7] was not above 3.2 g/kg/day; in data set [8] (children) it was “at least 315 mg/day”. For the same molecule, the harmless dose entry in [8] (adult humans) is “at least 7.5 g/day”.

Take `CC1=CC=C[C@]2(C)Cc3occ(C)c3C[C@@H]12` [FE, furanoeudesma-1,3-diene]: in the data set on intact mice, the “lowest dose showing antidepressant effects” value was determined as 5 mg/kg; the “effect in behavioral tests, individually” value is “antidepressant and anxiolytic effect”.

As to `CC(=O)N[C@H]1[C@H](O[C@H]2[C@H](O)[C@@H](O)[C@H](O[C@H]3[C@H](O)[C@@H](CO)OC(O)[C@@H]3NC(C)=O)O[C@@H]2C(=O)O)O[C@H](CO)[C@@H](O)[C@@H]1O[C@@H]1O[C@H](C(=O)O)[C@@H](O)[C@H](O)[C@H]1O` (stereo partly shown) [HA4, hyaluronic acid HA4 tetrasaccharide], in the data set with intact mice (setting [12]), the freezing entry is “clear anxiolytic and antidepressant effect”; the locomotor activity result is given as “does not create deficits in the animal's locomotor activity”. Also, the “effect in behavioral tests, individually” value with intact mice was “antidepressant and anxiolytic effect”. For the same molecule, the CD11b protein levels result in the data set on CD11b is “Significant reduction of CD11b in both PFC and HIPP”. Further, the GFAP protein levels entry with GFAP is “significant reduction; also recorded: removes GFAP alterations in both PFC and HIPP”. Besides, the Kynurenine levels entry in the data set on kynurenine (KYN) is “significant reduction”. Besides, the Glutamate levels result in the data set on glutamate (GLU) was “increase in glutamate”.

On to `C=C1CC/C=C(\C)CC[C@@H]2[C@@H]1CC2(C)C` [βCP, β-caryophyllene], for which, in the data set on intact mice, the “lowest dose showing antidepressant effects” value was determined as 5 mg/kg; the “effect in behavioral tests, individually” value was “antidepressant and anxiolytic effect”. Also, in [9], the “toxic dose (category 5 substance, OECD guidelines)” value was “greater than 2,000 mg/kg”. Moreover, the “Splash test latency time (antidepressant effect)” value in the data set with mice treated with Aβ icv was “antidepressant effect”. For the same molecule, in the data set on dopamine (DA), the “Dopamine (DA) levels” value is recorded as “increase in dopaminergic activity in HIPP”. In addition, the pathological changes entry in data set [10] (mice, 100 mg/kg i.p.) is on record as “no evidence of pathological changes”. Also, in data set [10] (mouse, in vivo, ip), the LD50 was 316 mg/kg.

In the case of Hyaluronic acid, the LD50 is 1,500 mg/kg in data set [11] (intraperitoneum), > 4,000 mg/kg in data set [11] (subcutaneous) and > 2,400 mg/kg in data set [11] (via os).

The values above are taken from patent US20260115162A1, “COMPOSITION OR ASSOCIATION OF COMPOUNDS PREFERABLY FOR USE IN THE TREATMENT OF NERVOUS DISEASES IN PARTICULAR NEURODEGENERATIVE DISEASES, METHOD FOR THE PREPARATION OF SUCH COMPOSITION OR ASSOCIATION OF COMPOUNDS AND USES THEREOF” (PHARMACEUTICA SAN MARCO S.R.L., priority 2022, published 2026).
